Laboratory results taken from the Deep4Chem optical property database.
“And” between values parts separate entries of the source, which are not always exact repeats. Identical values can stand only once. One block for each compound: values may come before it.

Experiment: photoluminescence quantum yield (fraction); solvent given as SMILES

Structure (SMILES): C(#Cc1ccc2c(c1)c1cc(C#Cc3ccccc3)ccc1n2-c1cc2ccccc2c2ccccc12)c1ccccc1
photoluminescence quantum yield (in ClCCl): 0.32

Structure (SMILES): C(#Cc1c(C#Cc2ccccc2)c(C#Cc2ccccc2)c(C#Cc2ccccc2)c(C#Cc2ccccc2)c1C#Cc1ccccc1)c1ccccc1
photoluminescence quantum yield (in ClCCl): 0.43

Structure (SMILES): COc1ccc(C#Cc2c3cc4cc(C)sc4cc3c(C#Cc3ccc(OC)cc3)c3cc4cc(C)sc4cc23)cc1
photoluminescence quantum yield (in ClCCl): 0.92

Structure (SMILES): c1ccc(C2=C(c3ccccc3)c3cccc4c3c(cc3nc5c(-c6ccccc6)ccc(-c6ccccc6)c5nc34)O2)cc1
photoluminescence quantum yield (in ClCCl): 0.23

Structure (SMILES): c1cc2ccc1-c1ccc(cc1)-c1ccc(s1)-c1ccc(cc1)-c1ccc(cc1)-c1ccc(s1)-c1ccc(cc1)-c1ccc(cc1)-c1ccc-2s1
photoluminescence quantum yield (in C1CCOC1): 0.27

Structure (SMILES): c1ccc(-c2nc(-c3ccccc3)nc(-c3cc(-n4c5ccccc5c5ccccc54)cc(-n4c5ccccc5c5ccccc54)c3)n2)cc1
photoluminescence quantum yield (in O=P(c1ccccc1)(c1ccccc1)c1ccc2oc3ccc(P(=O)(c4ccccc4)c4ccccc4)cc3c2c1): 0.58

Structure (SMILES): CC(C)(C)N1C(=O)c2c(cc3ccc4cccc5ccc2c3c45)C1O (stereo not drawn)
photoluminescence quantum yield (in ClC(Cl)Cl): 0.14 and 0.143

Structure (SMILES): CC[N+](CC)=c1ccc2c(-c3ccccc3C(=O)O)c3c(=O)oc4c5c6c(cc4c3oc-2c1)CCCN6CCC5
photoluminescence quantum yield (in CCO): 0.01 | photoluminescence quantum yield (in ClC(Cl)Cl): 0.09

Structure (SMILES): COc1cc(N(c2ccccc2)c2ccc(C=C(C#N)C#N)c(OC)c2)ccc1C=C(C#N)C#N
photoluminescence quantum yield (in C1COCCO1): 0.035 | photoluminescence quantum yield (in CC#N): 0.008 | photoluminescence quantum yield (in CC(C)=O): 0.017 | photoluminescence quantum yield (in CCOC(C)=O): 0.085 | photoluminescence quantum yield (in CN(C)C=O): 0.073 | photoluminescence quantum yield (in CO): 0.039 | photoluminescence quantum yield (in Cc1ccccc1): 0.032 | photoluminescence quantum yield (in ClC(Cl)Cl): 0.076 | photoluminescence quantum yield (in ClCCl): 0.072

Structure (SMILES): Cc1ccc(C2=C3C=CC(Sc4ccccc4)=[N+]3[B-](F)(F)n3c(Sc4ccccc4)ccc32)cc1
photoluminescence quantum yield (in C1CCOC1): 0.82

Structure (SMILES): COc1ccc(C2C3=C(CCCC3=O)Nc3c2c(=O)oc2ccccc32)cc1 (stereo not drawn)
photoluminescence quantum yield (in CS(C)=O): 0.26

Structure (SMILES): N#Cc1cc(C#N)c(-n2c3ccccc3c3c(-c4cccc5c4c4ccccc4n5-c4cc(-n5c6ccccc6c6ccccc65)c(C#N)cc4C#N)cccc32)cc1-n1c2ccccc2c2ccccc21
photoluminescence quantum yield (in O=P(c1ccccc1)(c1ccccc1)c1ccccc1Oc1ccccc1P(=O)(c1ccccc1)c1ccccc1): 0.61

Structure (SMILES): Cc1cc(C#N)ccc1N1c2ccccc2C(c2ccccc2)(c2ccccc2)c2ccccc21
photoluminescence quantum yield (in Cc1ccccc1): 0.12

Structure (SMILES): COc1cc2c(cc1OC)C1=C3C(=O)N4C=Cc5cc(OC)c(OC)cc5C4=C3C(=O)N1C=C2
photoluminescence quantum yield (in CN(C)C=O): 0.7 | photoluminescence quantum yield (in ClC(Cl)Cl): 0.85

Structure (SMILES): CCCCCCc1ccc2c3c(ccc2c1)O[B-](F)(F)[N+](c1cc([N+]2=Cc4c(ccc5cc(CCCCCC)ccc45)O[B-]2(F)F)cc([N+]2=Cc4c(ccc5cc(CCCCCC)ccc45)O[B-]2(F)F)c1)=C3
photoluminescence quantum yield (in C1CCOC1): 0.26 | photoluminescence quantum yield (in CC#N): 0.18 | photoluminescence quantum yield (in Cc1ccccc1): 0.48 | photoluminescence quantum yield (in ClCCl): 0.44

Structure (SMILES): CN(C)c1ccc(/C=C/c2nc3ccc(Br)cc3nc2-c2ccccc2)cc1
photoluminescence quantum yield (in C1COCCO1): 0.19 | photoluminescence quantum yield (in CC#N): 0.01 | photoluminescence quantum yield (in ClCCl): 0.17

Structure (SMILES): CN(C)c1ccc(-c2cc(-c3ccc(N(C)C)cc3)ncn2)cc1
photoluminescence quantum yield (in ClCCl): 0.72

Structure (SMILES): CCc1c(C)c2n(c1C)[B-](F)(F)[N+]1=C(c3ccc[nH]3)c3ccccc3C1=C2
photoluminescence quantum yield (in C1CCOC1): 0.71 | photoluminescence quantum yield (in CC#N): 0.74 | photoluminescence quantum yield (in CCCCCC): 0.82 | photoluminescence quantum yield (in CO): 0.65 | photoluminescence quantum yield (in Cc1ccccc1): 0.72 | photoluminescence quantum yield (in ClCCl): 0.66

More lines, now with the values ahead:

photoluminescence quantum yield (in CCO): 0.08 | photoluminescence quantum yield (in ClCCl): 0.16
Structure (SMILES): c1ccc(-c2c3ccccc3c(-c3ncccn3)c3ccccc23)cc1

photoluminescence quantum yield (in CC#N): 0.0002 | photoluminescence quantum yield (in ClCCl): 0.0003
Structure (SMILES): COC(=O)c1ccccc1C#Cc1ccccc1NC(C)=O

photoluminescence quantum yield (in ClCCl): 0.7
Structure (SMILES): CC1=c2c3c4cccc5cccc(c=3c(C)[n+]2[B-](F)(F)n2c(C)c3cc6c(-c7ccccc7)c7c(c(-c8ccccc8)c6cc3c21)-c1cccc2cccc-7c12)c54

photoluminescence quantum yield (in ClCCl): 0.13
Structure (SMILES): C(=C\c1ccncn1)/c1ccc(N2CCCCC2)cc1

photoluminescence quantum yield (in CC#N): 0.44 | photoluminescence quantum yield (in CO): 0.41 | photoluminescence quantum yield (in ClCCl): 0.46 | photoluminescence quantum yield (in OCC(O)CO): 0.39
Structure (SMILES): CCCn1c2cccc3oc4cccc5c4[c+](c32)c2c1cccc2n5CCC

photoluminescence quantum yield (in ClCCl): 0.004
Structure (SMILES): N#Cc1ccc(/C2=C3N=C(C(c4ccccc4)=C/3c3ccccc3)/C(c3ccc(C#N)cc3)=c3\[nH]/c(c(-c4ccccc4)c3-c3ccccc3)=C(/c3ccc(C#N)cc3)C3=N/C(=C(/c4ccc(C#N)cc4)c4[nH]c2c(-c2ccccc2)c4-c2ccccc2)C(c2ccccc2)=C3c2ccccc2)cc1

photoluminescence quantum yield (in CC(C)(C)O): 0.12 | photoluminescence quantum yield (in CC(C)CO): 0.12 | photoluminescence quantum yield (in CC(C)O): 0.11 | photoluminescence quantum yield (in CCCCO): 0.13 | photoluminescence quantum yield (in CCCO): 0.16 | photoluminescence quantum yield (in CCO): 0.19 | photoluminescence quantum yield (in CN(C)C=O): 0.04 | photoluminescence quantum yield (in CNC=O): 0.08 | photoluminescence quantum yield (in CO): 0.23 | photoluminescence quantum yield (in NC=O): 0.31 | photoluminescence quantum yield (in O): 0.54
Structure (SMILES): COCCOCCOCCOc1cc(C=O)c(OCCOCCOCCOC)cc1C=O

photoluminescence quantum yield (in C1CCOC1): 0.75 | photoluminescence quantum yield (in CC#N): 0.43 | photoluminescence quantum yield (in CO): 0.21 | photoluminescence quantum yield (in ClCCl): 0.62
Structure (SMILES): COc1cc(-c2nc3c4cccnc4c4ncccc4c3[nH]2)c(OC)cc1/C=C/c1nc2ccccc2[nH]1

photoluminescence quantum yield (in CC#N): 0.11
Structure (SMILES): c1cc2oc3cccc4oc5cccc6oc(c1)c2[c+](c34)c65

photoluminescence quantum yield (in C1CCOC1): 0.02
Structure (SMILES): COc1cc2c(cc1-c1ccc(N(C)C)cc1)Cc1c3c(c4c(c1-2)-c1cc(OC)c(-c2ccc(N(C)C)cc2)cc1C4)C(=O)N(CCC(C)C)C3=O

photoluminescence quantum yield (in O): 0.011
Structure (SMILES): [NH3+]c1cc([NH3+])cc(-c2nc3ccccc3s2)c1

photoluminescence quantum yield (in ClCCl): 0.26
Structure (SMILES): CCCCN(CCCC)c1ccc(C#Cc2cc(C#Cc3ccc(C#N)cc3)c(C#Cc3ccc(C#N)cc3)cc2C#Cc2ccc(N(CCCC)CCCC)cc2)cc1
